# Several values for one entry are separate records, joined by “and”; a condition that tells them apart may be missing. Equal values may be shown once.
# How the values were obtained:
# [1] = system: collagen antibody-induced arthritis; experiment: Mouse CAIA: ankle histology scores (H & E); type: in vivo, Balb C mice; parameters: key to Score From H & E: Inflammation: 0: normal; 1: minimal infiltration of inflammatory cells in periarticular tissue; 2: mild infiltration; 3: moderate infiltration with moderate edema; 4: marked infiltration with marked edema; 5: severe infiltration with severe edema; key to Exostosis, Summary (significance) / Composite, Summary (significance) / Pannus, Summary (significance) / Cartilage, Summary (significance) / Inflammation, Summary (significance): ns: = not significant; *: = P < 0.05; **: = P < 0.01; ***: = P < 0.001; Composite Biohistopathology Score, group value / Composite Biohistopathology Score: scale not given here
# Procedure: (§1) Balb C mice (n=10 per cohort) were used to determine the efficacy of Factor H (FH) during […]. The mice were treated with ArthritoMAb (anti-collagen) antibody cocktail (2 mg, i.v.) on day 1, followed 7 days later with an injection of LPS (50 μg, i.p.). On day 8, hind paw volumes were measured for each animal and distributed to various treatment groups.
# (§2) Dosing with the different agents was started on day 8 as described in Table 3.
# (§3) Hind paw volumes were measured on day 8, 11, 12, 13, 15, 19 and 22 (endpoint). The age at start date was 7 to 9 weeks. Body weights were measured bi-weekly to the endpoint (Table 4). At the endpoint, tissue samples were processed for histology and submitted to a pathologist for independent analysis. Sampling 1 was performed at the endpoint. The hind limbs were preserved in 10% formalin. Sampling 2 was performed at the endpoint for group 4 animals. Blood was collected by terminal cardiac puncture. The blood was processed for anti-coagulant. The kidneys were additionally preserved in formalin and followed with 70% EtOH. Samples were scored for inflammation, pannus (granulation tissue), cartilage damage, bone resorption and exostosis (Table 5).
# [2] = system: collagen antibody-induced arthritis; experiment: Mouse CAIA: hind paw / footpad volume (swelling, disease burden); type: in vivo, Balb C mice; parameters: Mean Disease Burden / Total Disease Burden (AUC) / Hind Limb Volume, Mean Diff. / Total Disease, Mean Diff.: unit not given here
# Procedure: as §1
# (§4) Factor H was formulated in 20 mM Citrate, 150 mM NaCl, pH=6. […] Ethanercept was formulated as Enbrel™ in saline. Vehicle was formulated in 20 mM Citrate, 150 mM NaCl, pH=6. […] The dosing volume for Factor H and BX12 was 25 mL/kg (0.500 mL/20 g mouse) and adjusted accordingly for body weight.
# as §2
# as §3, with “The” for “Hind paw volumes were measured on day 8, 11, 12, 13, 15, 19 and 22 (endpoint). The”
# [3] = system: collagen antibody-induced arthritis; experiment: Mouse CAIA: clinical score; type: in vivo, Balb C mice
# Procedure: The mice were treated with ArthritoMAb (anti-collagen) antibody cocktail (2 mg, i.v.) on day 1, followed 7 days later with an injection of LPS (50 μg, i.p.). On day 8, hind paw volumes were measured for each animal and distributed to various treatment groups.
# as §4, §2
# [4] = Mouse CAIA: body weight and tolerability; type: in vivo, Balb C mice; details: mouse, in vivo
# Procedure: as §1, §2, §3
# [5] = system: collagen antibody-induced arthritis; experiment: Mouse CAIA: ankle histology scores (H & E); type: in vivo, Balb C mice; parameters: key: 0: normal; 1: minimal infiltration of pannus in cartilage and subchondral bone; 2: mild infiltration; 3: moderate infiltration; 4: marked infiltration; 5: severe infiltration; details: individual animal, score 0-5, endpoint day 22, listed as Group 2
# Procedure: as §1, §2, §3
# [6] = system: collagen antibody-induced arthritis; experiment: Mouse CAIA: ankle histology scores (H & E); type: in vivo, Balb C mice; parameters: key: 0: normal; 1: minimal infiltration of inflammatory cells in periarticular tissue; 2: mild infiltration; 3: moderate infiltration with moderate edema; 4: marked infiltration with marked edema; 5: severe infiltration with severe edema; details: individual animal
# Procedure: as §1, §2, §3
# [7] = system: kidney allografts in pre-sensitized recipients; experiment: Kidney allograft survival in pre-sensitized recipients, RAPA / FK506 / CFH (Example 2); type: in vivo, C57BL/6 (B6) mice
# From the text: Male C3H (H-2k) and C57BL/6 (B6, H-2b) mice (25-30 g) were used to determine the efficacy of Rapamycin (RAPA) in combination with Factor H (FH) during transplant rejection. C3H mice served as skin graft and kidney donors for pre-sensitization and kidney transplantation. Male C57BL/c (B6) mice were used as recipients. The B6 recipients were pre-sensitized by transplantation of the donor skin grafts, and were subsequently transplanted with kidney allografts between 15 and 20 days after the skin transplantation. […]
# Mice were monitored daily for signs of rejection and were euthanized at the end point of the experiment, which was defined as when transplants developed functional deterioration due to severe rejection or on POD60 and POD100. Renal graft function was monitored by plasma creatinine (Cr) blood urea nitrogen (BUN) and hematocrit (Hct) levels by an I-Stat potable analyzer (Abaxis). Circulating donor specific antibodies (DSAs) were determined prior to kidney transplantation and at the endpoint of study by flow cytometry.
# [8] = histopathology score, graded 1-5, hind limbs at endpoint, group value
# [9] = Vehicle vs agent, Dunnett's Multiple Comparison Test
# [10] = Vehicle vs agent, Dunn's Multiple Comparison Test
# [11] = ankle, group mean ± spread, 10 animals, score 0-5
compound,measurement,setting,value
C[C@@H]1C[C@H]2[C@@H]3CCC4=CC(=O)C=C[C@]4(C)[C@@]3(F)[C@@H](O)C[C@]2(C)[C@@]1(O)C(=O)CO [Dex.],Composite Score,"[1]; histopathology composite, hind limbs at endpoint, group value",0.2 ± 0.1
same,Bone Resorption,[1]; [8],0 ± 0^ns
same,Cartilage Damage,[1]; [8],0 ± 0^ns
same,Exostosis,[1]; [8],0 ± 0
same,Inflammation,[1]; [8],0.1 ± 0.1
same,Pannus,[1]; [8],0.1 ± 0.1^ns
C[C@@H]1C[C@H]2[C@@H]3CCC4=CC(=O)C=C[C@]4(C)[C@@]3(F)[C@@H](O)C[C@]2(C)[C@@]1(O)C(=O)CO [Dexamethasone],"Hind Limb Volume, Summary (significance)",[2]; [9],*** (= P < 0.001)
same,"Total Disease, Summary (significance)",[2]; [9],*** (= P < 0.001)
same,Hind paw volume,"[2]; day 8 of study, group mean, n 10",0.35 mL
same,Hind paw volume,"[2]; day 8 of study, individual animal",0.42 mL and 0.39 mL (2×) and 0.37 mL and 0.35 mL and 0.34 mL and 0.33 mL and 0.31 mL (2×) and 0.3 mL
same,Hind paw volume,"[2]; day 11 of study, group mean, n 10",0.32 mL
same,Hind paw volume,"[2]; day 11 of study, individual animal",0.38 mL and 0.34 mL and 0.32 mL (3×) and 0.3 mL (3×) and 0.35 mL and 0.31 mL
same,Hind paw volume,"[2]; day 12 of study, group mean, n 10",0.34 mL
same,Hind paw volume,"[2]; day 12 of study, individual animal",0.34 mL (4×) and 0.28 mL and 0.35 mL and 0.32 mL and 0.31 mL and 0.39 mL and 0.37 mL
same,Hind paw volume,"[2]; day 13 of study, group mean, n 10",0.33 mL
same,Hind paw volume,"[2]; day 13 of study, individual animal",0.31 mL (2×) and 0.3 mL (2×) and 0.36 mL and 0.35 mL (2×) and 0.33 mL and 0.38 mL and 0.29 mL
same,Hind paw volume,"[2]; day 16 of study, group mean, n 10",0.31 mL
same,Hind paw volume,"[2]; day 16 of study, individual animal",0.37 mL and 0.33 mL and 0.29 mL (3×) and 0.38 mL and 0.26 mL and 0.3 mL (2×) and 0.27 mL
same,Hind paw volume,"[2]; day 19 of study, group mean, n 10",0.34 mL
same,Hind paw volume,"[2]; day 19 of study, individual animal",0.35 mL (4×) and 0.28 mL and 0.3 mL (2×) and 0.38 mL and 0.37 mL and 0.32 mL
same,Hind paw volume,"[2]; day 22 of study, group mean, n 10",0.33 mL
same,Hind paw volume,"[2]; day 22 of study, individual animal",0.39 mL and 0.42 mL and 0.3 mL and 0.32 mL and 0.29 mL (2×) and 0.35 mL (2×) and 0.31 mL and 0.26 mL
same,% Disease Suppression,"[2]; days 8-22, individual animal",95.1%
same,Total Disease Burden (AUC),"[2]; days 8-22, individual animal",−0.56 and −0.05
same,"Clinical Score, Summary (significance)",[3]; [10],*** (= P < 0.001)
same,"Clinical Score, Day of Study 8, Mean","[3]; group mean, n=10, day 8 (start of dosing)",4.00
same,"Clinical Score, Day of Study 11, Mean","[3]; group mean, n=10, day 11",0.10
same,"Clinical Score, Day of Study 12, Mean","[3]; group mean, n=10, day 12",5.70
same,"Clinical Score, Day of Study 13, Mean","[3]; group mean, n=10, day 13",6.00
same,"Clinical Score, Day of Study 16, Mean","[3]; group mean, n=10, day 16 (Jul. 1, 2011)",0.00
same,"Clinical Score, Day of Study 19, Mean","[3]; group mean, n=10, day 19",0.00
same,"Clinical Score, Day of Study 22, Mean","[3]; group mean, n=10, day 22 (endpoint)",0.00
same,"Clinical Score, Day of Study 8","[3]; individual animal, score 0-60, day 8 (start of dosing)",5 (2×) and 10 (3×) and 0 (5×)
same,"Clinical Score, Day of Study 11","[3]; individual animal, score 0-60, day 11",0 (9×) and 1
same,"Clinical Score, Day of Study 12","[3]; individual animal, score 0-60, day 12",0 (3×) and 10 (4×) and 5 (2×) and 7
same,"Clinical Score, Day of Study 13","[3]; individual animal, score 0-60, day 13",0 (4×) and 10 (6×)
same,"Clinical Score, Day of Study 16","[3]; individual animal, score 0-60, day 16 (Jul. 1, 2011)",0
same,"Clinical Score, Day of Study 19","[3]; individual animal, score 0-60, day 19",0
same,"Clinical Score, Day of Study 22","[3]; individual animal, score 0-60, day 22 (endpoint)",0
same,"Cartilage, Summary (significance)",[1]; [10],ns
same,"Composite, Summary (significance)",[1]; [10],* (= P < 0.05)
same,"Exostosis, Summary (significance)",[1]; [10],** (= P < 0.01)
same,"Inflammation, Summary (significance)",[1]; [10],** (= P < 0.01)
same,"Pannus, Summary (significance)",[1]; [10],ns
same,"Composite Biohistopathology Score, group value","[1]; ankle, group mean ± spread, 10 animals",0.2 ± 0.1
same,"Score From H & E: Bone Resorption, group value",[1]; [11],0.0 ± 0.0
same,"Score From H & E: Cartilage Damage, group value",[1]; [11],0.0 ± 0.0
same,"Score From H & E: Inflammation, group value",[1]; [11],0.1 ± 0.1
same,"Score From H & E: Pannus, group value",[1]; [11],0.1 ± 0.1
same,"Score From H & E: Periosteal/Exostotic Changes, group value",[1]; [11],0.0 ± 0.0
same,Composite Biohistopathology Score,"[1]; ankle, individual animal, endpoint day 22, listed as Group 2",1 (2×) and 0 (8×)
same,Score From H & E: Inflammation,"[1]; ankle, individual animal, score 0-5, endpoint day 22, listed as Group 2",0 (9×) and 1
same,Mean Body Weigh at Nadir,[4],−7.7%
same,Score From H & E: Pannus,[5],1
same,Score From H & E: Bone Resorption,"[6]; score 0-5, endpoint day 22",0
same,Score From H & E: Cartilage Damage,"[6]; score 0-5, endpoint day 22",0
same,Score From H & E: Periosteal/Exostotic Changes,"[6]; score 0-5, endpoint day 22",0
same,Score From H & E: Pannus,"[6]; score 0-5, endpoint day 22, listed as Group 2",0
"CO[C@H]1C[C@@H]2CC[C@@H](C)[C@@](O)(O2)C(=O)C(=O)N2CCCC[C@H]2C(=O)O[C@H]([C@H](C)C[C@@H]2CC[C@@H](O)[C@H](OC)C2)CC(=O)[C@H](C)/C=C(\C)[C@@H](O)[C@@H](OC)C(=O)[C@H](C)C[C@H](C)/C=C/C=C/C=C/1C [RAPA, Rapamycin]",Survival,"[7]; individual graft survival, one value per graft",8 days (2×) and 37 days and 10 days and 11 days and 12 days and 22 days and 14 days and 16 days and 20 days
same,MST,"[7]; mean survival time of cohort, untreated controls 8 days",14 days

# — US9248162B2, “Factor H for treatment of rheumatoid arthritis” (Baxter International Inc., priority 2013, dated 2016)
